The nature of data set [1]: Kinetic solubility of the compound in phosphate buffered saline at pH 6.5. The note with it: read-out: Kinetic_solubility. The format is physicochemical.
For data set [2], the system named is Rattus norvegicus. In words: Cmax in Wistar rat at 50 mg/kg, po. Details: dose 50 mg/kg, route oral. The note with it: in vivo. The format is ADME, organism-based.
A short description of data set [3]: Oral bioavailability in Wistar rat at 50 mg/kg. The format is ADME, organism-based. As to conditions: in vivo.
In data set [4] the test system is Rattus norvegicus. Briefly: Antiobesity activity in diet induced obese Sprague-Dawley rat model assessed as reduction in plasma triglycerides level at 50 mg/kg, po qd for 3 weeks measured on day 21 relative to vehicle treated control. The format is functional. Details: scale not given: the % may be the effect or the level left.
For data set [5], the system named is Rattus norvegicus. Briefly: Cmax in diet induced obese Sprague-Dawley rat model at 50 mg/kg, po qd for 3 weeks measured on day 21. The format is ADME, organism-based. On the set-up: dose 50 mg/kg, route oral. As to conditions: in vivo, 504 h.
In another data set the test system is Salmonella typhimurium. In words: Mutagenic activity in Salmonella Typhimurium by Ames test. The format is toxicity, organism-based. The note with it: salmonella enterica subsp. enterica serovar typhimurium. For orientation: The Ames test uses bacterial strains that need an amino acid and regain growth without it when mutated back.
Data set [6] relates to Rattus norvegicus. In words: Antiobesity activity in po dosed diet induced obese Sprague-Dawley rat model assessed as reduction in plasma triglycerides level administered qd for 3 weeks measured on day 21. The format is functional, organism-based.
The test system of data set [7] is Rattus norvegicus. In words: Toxicity in diet induced obese Sprague-Dawley rat model assessed as change in heart weight administered orally after 22 days. The note with it: in vivo, po, 528 h. The format is organism-based.
The nature of data set [8]: Cmax in diet induced obese Sprague-Dawley rat model at 25 mg/kg, po qd for 3 weeks measured on day 21. The format is ADME, organism-based. Details: dose 25 mg/kg, route oral. The note with it: in vivo.
The nature of data set [9]: AUC in Wistar rat at 5 mg/kg, iv. On the set-up: dose 5 mg/kg, route intravenous. As to conditions: plasma. The format is ADME, organism-based.
Data set [10] in a line: Cmax in diet induced obese Sprague-Dawley rat model at 5 mg/kg, po qd for 3 weeks measured on day 21. The format is ADME, organism-based. On the set-up: dose 5 mg/kg, route oral. The note with it: in vivo.
Data set [11] is described as follows: Tmax in Wistar rat at 50 mg/kg, po. The note with it: in vivo. Details: dose 50 mg/kg, route oral. The format is ADME, organism-based.
The subject of data set [12] is Rattus norvegicus. Briefly: Toxicity in diet induced obese Sprague-Dawley rat model assessed as change in brain weight administered orally after 22 days. The format is organism-based. The note with it: in vivo, po, 528 h.
Data set [13] in a line: Genotoxicity in micronucleus by micronucleus assay.
Data set [14] deals with Rattus norvegicus. Briefly: Antiobesity activity in diet induced obese Sprague-Dawley rat model assessed as reduction in plasma free fatty acid level at 50 mg/kg, po qd for 3 weeks measured on day 21. The format is functional, organism-based. Details: dose 50 mg/kg.
A short description of data set [15]: Fraction unbound in human serum. The format is ADME, cell-free.
The test system of data set [16] is Rattus norvegicus. In words: Toxicity in diet induced obese Sprague-Dawley rat model assessed as change in kidney weight administered orally after 22 days. The format is organism-based. The note with it: in vivo, po, 528 h.
A short description of data set [17]: AUC in Wistar rat at 50 mg/kg, po. The format is ADME, organism-based. As to conditions: plasma. On the set-up: dose 50 mg/kg, route oral.
Data set [18] is described as follows: Volume of distribution in Wistar rat at 5 mg/kg, iv. The format is ADME, organism-based. On the set-up: dose 5 mg/kg, route intravenous. The note with it: in vivo.
Data set [19] concerns Rattus norvegicus. In words: Antiobesity activity in diet induced obese Sprague-Dawley rat model assessed as decrease in fat pad mass at 50 mg/kg, po qd for 3 weeks measured on day 21 relative to vehicle treated control. On the set-up: dose 50 mg/kg. The format is functional, organism-based.
Data set [20] concerns Rattus norvegicus. In words: Antiobesity activity in diet induced obese Sprague-Dawley rat model assessed as reduction in total cholesterol level at 50 mg/kg, po qd for 3 weeks measured on day 21. The format is functional, organism-based. Details: dose 50 mg/kg.
Data set [21] concerns Rattus norvegicus. Briefly: Toxicity in diet induced obese Sprague-Dawley rat model assessed as change in liver enzyme activity administered orally after 22 days. As to conditions: in vivo, po, 528 h. The format is organism-based.
Data set [22] in a line: Half life in Wistar rat at 5 mg/kg, iv. The format is ADME, organism-based. The note with it: in vivo. Details: dose 5 mg/kg, route intravenous.
Data set [23] deals with Rattus norvegicus. Briefly: Antiobesity activity in po dosed diet induced obese Sprague-Dawley rat model assessed as reduction in weight gain administered qd for 3 weeks relative to vehicle treated control. The format is functional, organism-based.
Data set [24] concerns Rattus norvegicus. In words: Toxicity in diet induced obese Sprague-Dawley rat model assessed as change in liver weight administered orally after 22 days. The note with it: in vivo, po, 528 h. The format is organism-based.
The test system of data set [25] is Rattus norvegicus. In words: Antiobesity activity in diet induced obese Sprague-Dawley rat model assessed as reduction in weight gain at 50 mg/kg, po qd for 3 weeks measured on day 21 relative to vehicle treated control. On the set-up: scale not given: the % may be the effect or the level left. The format is functional.
Data set [26] relates to Rattus norvegicus. In words: Antiobesity activity in diet induced obese Sprague-Dawley rat model assessed as reduction in weight gain at 25 mg/kg, po qd for 3 weeks measured on day 21 relative to vehicle treated control. On the set-up: scale not given: the % may be the effect or the level left. The format is functional.
The species named for the next data set is Cavia porcellus. Briefly: Cardiotoxicity in guinea pig Langendorff heart model assessed as QT prolongation at >= 0.47 uM. The format is toxicity.
In data set [27] the test system is Rattus norvegicus. Briefly: Antiobesity activity in diet induced obese Sprague-Dawley rat model assessed as decrease in lean muscle at 50 mg/kg, po qd for 3 weeks measured on day 21 relative to vehicle treated control. The format is functional, organism-based. Details: dose 50 mg/kg.
Data set [28] concerns the target T1, Diacylglycerol O-acyltransferase 1 (Rattus norvegicus, UniProt Q9ERM3).
T1 sequence (Q9ERM3 whole entry): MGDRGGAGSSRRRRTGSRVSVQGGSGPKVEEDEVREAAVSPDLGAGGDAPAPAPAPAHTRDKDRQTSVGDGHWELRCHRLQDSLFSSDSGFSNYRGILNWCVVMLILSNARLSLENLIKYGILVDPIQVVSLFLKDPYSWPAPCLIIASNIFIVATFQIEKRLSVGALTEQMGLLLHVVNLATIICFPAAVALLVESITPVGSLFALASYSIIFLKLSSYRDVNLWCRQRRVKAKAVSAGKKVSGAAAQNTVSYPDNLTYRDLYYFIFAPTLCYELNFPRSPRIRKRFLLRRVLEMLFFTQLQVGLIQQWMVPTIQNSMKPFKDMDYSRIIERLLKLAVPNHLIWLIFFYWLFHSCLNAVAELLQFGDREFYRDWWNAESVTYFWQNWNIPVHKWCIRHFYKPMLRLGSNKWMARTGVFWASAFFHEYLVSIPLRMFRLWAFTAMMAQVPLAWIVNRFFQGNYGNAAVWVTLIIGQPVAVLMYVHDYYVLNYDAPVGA
Briefly: Inhibition of rat DGAT1.

The nature of data set [29]: Solubility of the compound in simulated gastric fluid. The format is physicochemical.
A short description of data set [30]: Solubility of the compound. The format is physicochemical.

SMILES strings stand for the structures. ≈ marks a conversion by molar mass, not a printed value. Calls of active or inactive are those of the source.

In the case of `COCCN(C)c1ccc(NC(=O)c2nc(-c3ccccc3)oc2C(F)(F)F)cn1`, in data set [1], the solubility kinetic was 1 µg/mL (≈ 2.38 µM). Moreover, the Cmax in the data set on Rattus norvegicus [2] was determined as 10200 ng/mL; in the data set with Rattus norvegicus [5], 12.2 µM; in data set [8] it was 7.8 µM; in data set [10], 2.6 µM. This molecule had a bioavailability in [3] of 77%. Further, the Activity was 64% in the data set on Rattus norvegicus [4]; “Non-toxic” in the data set on Salmonella typhimurium; “Dose-dependent effect” with Rattus norvegicus [6]; “Non-toxic” in the data set with Rattus norvegicus [7]; “Non-toxic” in the data set on Rattus norvegicus [12]; “Non-toxic” in data set [13]. The Activity result in the data set with Rattus norvegicus [16] is “Non-toxic”; with Rattus norvegicus [21] it was “Non-toxic”; in the data set with Rattus norvegicus [23] it was “Dose-dependent effect”; with Rattus norvegicus [24], “Non-toxic”; in the data set with Rattus norvegicus [25] it was 8%; in the data set with Rattus norvegicus [26], 4%. The Activity result in the data set filed under Cavia porcellus is on record as “Toxic”. Further, the area under the curve (AUC) stood at 6160 ng·h/mL in data set [9] and 47200 ng·h/mL in data set [17]. In addition, the Tmax in [11] was 1 h. Further, the outcome in the data set with Rattus norvegicus [14], with Rattus norvegicus [19] and in the data set on Rattus norvegicus [20] was Active. For the same molecule, in data set [15], the fraction unbound worked out at 0.015. This molecule showed a Vd in [18] of 1.6 L/kg. The half-life in data set [22] is 1.95 h. Also, the result with Rattus norvegicus [27] was inactive. In [28], this molecule came in with an IC50 of 120 nM. The molecule further yielded a solubility in data set [29] of 770 µg/mL (≈ 1830 µM).
Consider `CCCn1[nH]c(=O)c2cc(NC(=O)c3nc(-c4ccccc4)oc3C(F)(F)F)ccc21`, for which, in data set [30], the solubility result is recorded as “Insoluble”.

For orientation: Cmax means the peak of the concentration-time curve. The term bioavailability denotes dose-corrected exposure relative to a reference, in per cent. By AUC is commonly meant concentration integrated over time. By Tmax is commonly meant the time from dosing to the highest level. What is called fraction unbound is the share of the substance not bound to proteins or other matrix. As usually defined, the Vd is a proportionality between amount in the body and measured concentration, not a real space. By half-life is commonly meant the time needed for the level to fall by half in the phase considered. As a reminder, the IC50 is the point on the concentration scale where inhibition reaches its midpoint. A word on the solubility: it is the dissolved amount per volume that the medium holds.

Values taken from ChEMBL document CHEMBL1921801, “Discovery and optimization of 2-phenyloxazole derivatives as diacylglycerol acyltransferase-1 inhibitors” (Bioorg Med Chem Lett, 2011).
